Data as given in US20020176889A1 (priority 2000, published 2002).
Where a name gives a salt, the structure may show the parent alone.

Test: pH of saturated aqueous solution
Type: physicochemical
Excerpt: The pH of the composition can be controlled or adjusted by the proper selection of excipients. It should be borne in mind that amlodipine maleate is slightly acidic. […] An example of a pH-inert excipient is microcrystalline cellulose.

**Q.** With `CCOC(=O)C1=C(COCCN)NC(C)=C(C(=O)OC)C1c1ccccc1Cl` (stereo not shown) [amlodipine maleate] as the compound, how does the “pH as a saturated aqueous solution” value read?
**A.** about 4.8
